Measured values taken from patent publication US20020076452A1, “Combinations of sesquiterpene lactones and ditepene lactones or triterpenes for synergistic inhibition of cyclooxygenase-2” (Ashni Naturaceuticals, Inc., priority 2000, published 2002).

Assays:
[1] = biological target: T1, COX-2 (Mus musculus, UniProt Q05769); experiment: cell-based
T1 sequence (Q05769 18-604): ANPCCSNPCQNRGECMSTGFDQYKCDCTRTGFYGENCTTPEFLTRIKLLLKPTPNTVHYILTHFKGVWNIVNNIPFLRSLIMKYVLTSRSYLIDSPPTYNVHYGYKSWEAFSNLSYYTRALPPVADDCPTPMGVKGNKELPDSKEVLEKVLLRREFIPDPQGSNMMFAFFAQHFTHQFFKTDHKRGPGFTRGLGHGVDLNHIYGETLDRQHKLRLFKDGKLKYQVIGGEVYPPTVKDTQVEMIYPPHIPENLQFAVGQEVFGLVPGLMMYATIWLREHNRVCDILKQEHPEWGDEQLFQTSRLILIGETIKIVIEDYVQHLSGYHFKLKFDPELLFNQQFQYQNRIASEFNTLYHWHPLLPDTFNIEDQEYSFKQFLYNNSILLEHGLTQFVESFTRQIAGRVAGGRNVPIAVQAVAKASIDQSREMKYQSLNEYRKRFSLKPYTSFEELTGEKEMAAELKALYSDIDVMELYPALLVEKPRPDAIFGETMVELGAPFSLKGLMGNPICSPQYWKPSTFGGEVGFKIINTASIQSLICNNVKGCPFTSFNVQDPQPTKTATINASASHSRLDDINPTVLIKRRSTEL
Method: Inhibition of COX-2 Mediated Production of PGE2 in RAW 264.7 Cells
General Procedure—RAW 264.7 cells, obtained from ATCC, were grown in DMEM medium and maintained in log phase growth.
On day one of the experiment, the log phase 264.7 cells were plated at 8×10^4 cells per well in 0.2 mL growth medium per well in a 96-well tissue culture plate. After 6 to 8 hours post plating, 100 μL of growth medium from each well was removed and replaced with 100 μL fresh medium. A 1.0 mg/mL solution of LPS, which was used to induce the expression of COX-2 in the RAW 264.7 cells, was prepared by dissolving 1.0 mg of LPS in 1 mL DMSO.
On day two of the experiment, the test materials were prepared as 1000×stock in DMSO. For example, if the final concentration of the test material was to be 10 μg/mL, a 10 mg/mL stock was prepared by dissolving 10 mg of the test material in 1 mL of DMSO. Fresh test materials were prepared on day 2 of the experiment. In 1.7 mL microfuge tubes, 1 mL DMEM without FBS was added to obtain test concentrations of 0.05, 0.10,0.5, and 1.0 μg/mL. 2 μL of the 1000×DMSO stock of the test material was added to the 1 mL of medium without FBS. The tube contained the final concentration of the test material was concentrated 2-fold. The tube was placed in incubator for 10 minutes to equilibrate.
One-hundred mL of medium was removed from each well of the cell plates prepared on day one. […]

[2] = tested on: COX-2; experiment: Inhibition of COX-2 enzyme protein expression in stimulated Jurkat cells (western blot); format: cell-based, Human; conditions: in the absence and presence of arachidonic acid, dose-range tested
From the text: Chemicals: Anti-COX-2 antibodies may be purchased from Upstate Biotechnology (Lake Placid, N.Y.). Parthenolide and andrographolide may be obtained from Sigma (St. Louis, Mo.). Arachidonic acid (AA), PMA and all other chemical may also be purchased from Sigma and are of the highest purity commercially available.
Human T cell lines: The Jurkat cell line is useful as a model for human T cells and may be obtained from the American Type Culture Collection (Bethesda, Md.). COX-2 is inducible in the Jurkat cell by PMA.
Cell plating: The Jurkat cells are propagated in suspension according to the instructions of the supplier. For experimentation, cells are seeded from a log-phase culture at a density of 1×10^5 cells per mL in 100 mm plates, 20 mL per plate, 3 plates per treatment. Serum concentration in the test medium is maintained at 0.5%.
Complete transfers are accomplished in 25-30 minutes at 500 mA. Membranes used for blotting are blocked by incubating in TBS (Tris buffered saline, 50 mM Tris, 150 mM NaCl, pH 7.5) containing 5% nonfat dry milk for 30 minutes at room temperature. COX-2 protein is visualized by incubation of the blots with the anti-COX-2 antibody in TBST (0.5% Tween 20 in TBS) for two hours and then a second incubation at room temperature with alkaline phosphatase-conjugated secondary antibody diluted 1:1000 in TBST for two hours. The enzymatic reaction is developed for 15 minutes. The molecular weight of COX-2 is estimated by adding a molecular weight standard to reference lanes and staining the membrane filters with amido black 10B.
Blots are translated into TIFF-formatted files with a Microtech 600GS scanner and quantified using Scan Analysis (BIOSOFT, Cambridge, UK). Summary scans are then printed and peak heights are measured directly from the figure. One density unit (Du) is defined as one mm of the resulting peak height.
Appropriate controls receive solvent only. […] Twenty-four hours after treatment, the cells are harvested, lysed and western blotting is done for the determination of COX-2 protein expression.

Row | SMILES | IC50 [1] [µM] | Inhibition of COX-2 protein expression [2]
1 | C=C1CC[C@@H]2[C@](C)(CO)[C@H](O)CC[C@@]2(C)[C@@H]1C/C=C1/C(=O)OC[C@H]1O [Andrographolide, andrographolide] | 34.8 | little effect
2 | CC1(C)CC[C@]2(C(=O)O)CC[C@]3(C)C(=CC[C@@H]4[C@@]5(C)CC[C@H](O)C(C)(C)[C@@H]5CC[C@]43C)[C@@H]2C1 [Oleanolic acid, oleanolic acid] |  | does not inhibit
3 | C[C@H]1[C@H](C)CC[C@]2(C(=O)O)CC[C@]3(C)C(=CC[C@@H]4[C@@]5(C)CC[C@H](O)C(C)(C)[C@@H]5CC[C@]43C)[C@H]12 [Ursolic acid, ursolic acid] | 35.3 | does not inhibit
